Results as given in patent US20200093929A1, “PHARMACEUTICAL COMPOSITION FOR THE PREVENTION AND TREATMENT OF MEMORY AND COGNITIVE DEFICITS RELATED TO AGEING” (IGEA PHARMA N.V., priority 2017, published 2020).
Marks after values point to notes of the source that are not given here.

Columns and labels:
[1] = system: N2a (ECACC) mouse neuroblastoma cells; test: Intracellular antioxidant capacity (ACi) in cell lysates, Pholasin chemiluminescence, N2a cells; format: cell-based; conditions: 48 h, corrected for % viable cells, CTRL 2.60
Experimental: (§1) N2a (ECACC) mouse neuroblastoma cells, plated in the presence of MEM integrated with non-essential amino acids, 10% FCS, antibiotics and glutamine, were exposed for 48 h to micromolar levels of oleuropein aglycone and/or glutathione thioesters (GST), in the presence and in the absence of prefibrillar aggregates of Aβ1-42 peptides (Lambert M, et al. J. Neurochem. 2001, 79:595-605). […] In the control plates (CTRL) the cells were incubated under the same conditions in the presence of the culture medium alone. The following were then evaluated: • the state of cell viability through the MTT reduction test (Pensalfini A et al., Free
(§2) Rad Biol Med 2008, 44: 1624-1636). • the level of mTOR substrate phosphorylation of kinase p70 S6 (mTOR P) by western blot analysis and subsequent densitometry (Grossi C, et al., PLoS ONE 2013, 8: e71702) • the level of intracellular antioxidant capacity (ACi) through hydrosolublescavenger doses in the cellular lysates in chemiluminescence, using • the Pholasin photoprotein (ABEL Antioxidant Test Kit, Knight Scientific Ltd., UK) as reported in Cecchi C., et al. Neurobiol. Aging 28: 863-876, 2007.
(§3) ACi values were correct for the % of viable cells. AP=toxic prefibrillar aggregates.

[2] = Cell viability by MTT reduction test in N2a cells, with and without Aβ1-42 prefibrillar aggregates; format: cell-based, mouse; conditions: mouse, N2a (ECACC) neuroblastoma cells; read-out: Cell viability (MTT test), % respect to controls
Experimental: as §1, §2, §3

[3] = system: N2a (ECACC) mouse neuroblastoma cells; test: as above; format: cell-based; conditions: for Comparison of the results among glycated oleuropein, oleuropein aglycone and hydroxytyrosol: Example 1 cell experiments; for Comparison of the results among the glutathione thioesters used (cell viability, mTOR P, ACi): micromolar levels, with and without Aβ1-42 aggregates
Experimental: as §1, §2, §3

mTOR = mTOR substrate phosphorylation of kinase p70 S6 (mTOR P), western blot and densitometry, N2a cells; format: cell-based, mouse; conditions: 48 h
Experimental: as §1, §2, §3

[4] = in the presence of Aβ42 AP 3 μM (OLE 2 µM; GST 3 µM)
[5] = substance(s) alone, no Aβ42 AP added (Aβ42 AP 3 μM; OLE 2 µM; GST 3 µM)

## C/C=C1/C(O)OC=C(C(=O)OC)[C@H]1CC(=O)OCCc1ccc(O)c(O)c1 (mixture of isomers) [OLE, oleuropein aglycone]
[1]; [4]
  ACi, mmol/L GSH Equivalent: 1.55* mmol/L GSH Equivalent
[1]; [5]
  ACi, mmol/L GSH Equivalent: 2.68 mmol/L GSH Equivalent
[2]
  viability at 48 h, 2 µM: 98%
[3]
  Comparison of the results among glycated oleuropein, oleuropein aglycone and hydroxytyrosol: No significant differences
[3]; N2a cells, 48 h, in the presence of Aβ42 AP 3 μM (OLE 2 µM; GST 3 µM)
  Cell viability (MTT test), % respect to controls: 65* %
mTOR; [4]
  mTOR P, % respect to controls: 69%
mTOR; [5]
  mTOR P, % respect to controls: 12* %

## CC/C=C\C/C=C\C/C=C\C/C=C\C/C=C\C/C=C\CCC(=O)SC[C@H](NC(=O)CC[C@H](N)C(=O)O)C(=O)NCC(=O)O [S-docohexaenoyl-glutathione]
[3]; N2a cells, 48 h
  Comparison of the results among the glutathione thioesters used (cell viability, mTOR P, ACi): equivalent results

## CC/C=C\C/C=C\C/C=C\CCCCCCCC(=O)SCC(NC(=O)CCC(N)C(=O)O)C(=O)NCC(=O)O (stereo not drawn) [S-linolenoyl-glutathione]
[3]; N2a cells, 48 h
  Comparison of the results among the glutathione thioesters used (cell viability, mTOR P, ACi): equivalent results

## CCCCC/C=C\C/C=C\CCCCCCCCSC[C@H](NC(=O)CC[C@H](N)C(=O)O)C(=O)NCC(=O)O [S-linoleyl-glutathione]
[3]; N2a cells, 48 h
  Comparison of the results among the glutathione thioesters used (cell viability, mTOR P, ACi): equivalent results

## CCCCCCCC/C=C\CCCCCCCCSC[C@H](NC(=O)CC[C@H](N)C(=O)O)C(=O)NCC(=O)O [S-oleyl-glutathione]
[3]; N2a cells, 48 h
  Comparison of the results among the glutathione thioesters used (cell viability, mTOR P, ACi): equivalent results

## C/C=C1/[C@H](O[C@@H]2O[C@H](CO)[C@@H](O)[C@H](O)[C@H]2O)OC=C(C(=O)OC)[C@H]1CC(=O)OCCc1ccc(O)c(O)c1 [glycated oleuropein, oleuropein]
[3]
  Comparison of the results among glycated oleuropein, oleuropein aglycone and hydroxytyrosol: No significant differences
